Assay results taken from patent US9315475B2 (MERCK SHARP & DOHME CORP., priority 2011, dated 2016).

Assays:
[1] = tested on: HIV-1 (H9IIIB strain); assay: Antiviral acute infection assay in cell culture (Spread); format: cell-based; details: HIV-1 H9IIIB infection of MT-4 human T-lymphoid cells in 10% FBS, mean of at least two independent experiments
Description: Antiviral Assays in Cell Culture (“Spread”)
Acute Infection Assay (“Spread”) data were generated using HIV-1 (H9IIIB strain) infection of MT-4 human T-lymphoid cells in 10% FBS, and according to the methods disclosed by J. P. Vacca et al, “L-735,524: An orally bioavailable human immunodeficiency virus type 1 protease inhibitor,” Proc. Natl. Acad. Sci. USA, Vol. 91, pp. 4096-4100 (April 1994).

[2] = molecular target: T1, wildtype HIV-1 protease (Human immunodeficiency virus type 1 group M subtype B, UniProt P04585); assay: Assay for inhibition of microbial expressed HIV protease (Pepcleav); format: biochemical; details: wild type HIV-1 protease expressed in E. coli, peptide substrate, pH 5.5; mean of at least two independent experiments; read-out: Pepcleav
T1 construct: the wildtype HIV-1 protease (which was expressed in Escherichia coli); made in house; host or cells: Escherichia coli
Summary of the method: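 E. coli-expressed wild-type HIV-1 protease (20 pM) preincubated 30 min at room temperature with inhibitor in pH 5.5 sodium acetate/NaCl/BSA buffer, then 400 μM Val-Ser-Gln-Asn-(βnaphthyl)Ala-Pro-Ile-Val added for 1 h at 30 °C. Quenched with formic acid; product quantified by LC-MS/MS peak area, indinavir internal standard.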

[3] = Human immunodeficiency virus 1, T-lymphoid

Compound: N[C@H](C(=O)Nc1cncc(F)c1CC[C@@H]1CN[C@H](COC(=O)NC[C@H]2CCC(=O)N2)CO1)C(c1ccc(F)cc1)c1ccc(F)cc1 [Example 254, 4-fluoro-N-(5-fluoro-4-{2-[(2R,5S)-5-{[({[(2R)-5-oxopyrrolidin-2-yl]methyl}carbamoyl)oxy]methyl}morpholin-2-yl]ethyl}pyridin-3-yl)-β-(4-fluorophenyl)-L-phenylalaninamide]
- EC50 [1, 3]: 1100 nM
- IC50 [2]: 7.6 nM

Compound: N[C@H](C(=O)Nc1cncc(F)c1CC[C@@H]1CN[C@H](COC(=O)NCc2ccno2)CO1)C(c1ccc(F)cc1)c1ccc(F)cc1 [Example 255, 4-fluoro-N-(5-fluoro-4-{2-[(2R,5S)-5-({[(isoxazol-5-ylmethyl)carbamoyl]oxy}methyl)morpholin-2-yl]ethyl}pyridin-3-yl)-β-(4-fluorophenyI)-L-phenylalaninamide]
- EC50 [1, 3]: 210 nM
- IC50 [2]: 6.4 nM

Compound: COc1ccc([C@@H](c2ccccc2)[C@H](N)C(=O)Nc2cncc(F)c2CC[C@@H]2CN[C@H](COC(=O)NCC(F)(F)F)CO2)cc1 [Example 256, (βR)-N-(5-fluoro-4-{2-[(2R,5S)-5-({[(2,2,2-trifluoroethyl)carbamoyl]oxy}methyl)morpholin-2-yl]ethyl}pyridin-3-yl)-O-methyl-β-phenyl-L-tyrosinamide]
- EC50 [1, 3]: 100 nM
- IC50 [2]: 5.7 nM

Compound: N[C@H](C(=O)Nc1cccc(F)c1CC[C@@H]1CN[C@H](COC(=O)NCC(F)(F)F)CO1)[C@H](c1ccc(F)cc1)c1cccc(Cl)c1 [Example 257, (βR)-β-(3-chlorophenyl)-4-fluoro-N-(3-fluoro-2-{2-[(2R,5S)-5-({[(2,2,2-trifluoroethyl)carbamoyl]oxy}methyl)morpholin-2-yl]ethyl}phenyl)-L-phenylalaninamide]
- EC50 [1, 3]: 51 nM
- IC50 [2]: 5.1 nM

Compound: NC(=O)OC[C@@H]1CO[C@H](COc2c(F)cc(F)cc2NC(=O)[C@@H](N)C(c2ccc(F)cc2)c2ccc(F)cc2)CN1 [Example 258, N-[2-({(2S,5S)-5-[(carbamoyloxy)methyl]morpholin-2-yl}methoxy)-3,5-difluorophenyl]-4-fluoro-β-(4-fluorophenyl)-L-phenylalaninamide]
- EC50 [1, 3]: 260 nM
- IC50 [2]: 5 nM

Compound: N[C@H](C(=O)Nc1cncc(F)c1CC[C@@H]1CN[C@H](COC(=O)NCC(F)(F)F)CO1)[C@H](c1ccccc1)c1ccc(F)c(F)c1 [Example 259, (βR)-β-(3,4-difluorophenyl)-N-(5-fluoro-4-{2-[(2R,5S)-5-({[(2,2,2-trifluoroethyl)carbamoyl]oxy}methyl)morpholin-2-yl]ethyl}pyridin-3-yl)-L-phenylalaninamide]
- EC50 [1, 3]: 66 nM
- IC50 [2]: 5 nM

Compound: N[C@H](C(=O)Nc1c(Cl)cccc1OC[C@@H]1CN[C@H](COC(=O)NCC(F)(F)F)CO1)C(c1ccc(F)cc1)c1ccc(F)cc1 [Example 260, N-(2-chloro-6-{[(2S,5S)-5-({[(2,2,2-trifluoroethyl)carbamoyl]oxy}methyl)morpholin-2-yl]methoxy}phenyl)-4-fluoro-β-(4-fluorophenyl)-L-phenylalaninamide]
- EC50 [1, 3]: 190 nM
- IC50 [2]: 4.8 nM

Compound: N[C@H](C(=O)Nc1c(Cl)cccc1OC[C@@H]1CN[C@H](COC(=O)NCC(F)(F)F)CO1)C(c1ccc(F)cc1)c1ccc(F)cc1 [Example 261, N-(2-chloro-6-{[(2S,5S)-5-({[(2,2,2-trifluoroethyl)carbamoyl]oxy}methyl)morpholin-2-yl]methoxy}phenyl)-4-fluoro-β-(4-fluorophenyl)-L-phenylalaninamide]
- EC50 [1]: 170 nM
- IC50 [2]: 4.3 nM

Compound: N[C@H](C(=O)Nc1cccc(F)c1CC[C@@H]1CN[C@H](COC(=O)NCC(F)(F)F)CO1)C(c1cccc(F)c1)c1cccc(F)c1 [Example 262, 3-fluoro-β-(3-fluorophenyl)-N-(3-fluoro-2-{2-[(2R,5S)-5-({[(2,2,2-trifluoroethyl)carbamoyl]oxy}methyl)morpholin-2-yl]ethyl}phenyl)-L-phenylalaninamide]
- EC50 [1, 3]: 15 nM
- IC50 [2]: 4 nM

Compound: N[C@H](C(=O)Nc1cccc(F)c1CC[C@@H]1CN[C@H](COC(=O)NCC(F)(F)F)CO1)[C@@H](c1ccc(F)cc1)c1cccc(OC(F)(F)F)c1 [Example 263, (βS)-4-fluoro-N-(3-fluoro-2-{2-[(2R,5S)-5-({[(2,2,2-trifluoroethyl)carbamoyl]oxy}methyl)morpholin-2-yl]ethyl}phenyl)-β-[3-(trifluoromethoxy)phenyl]-L-phenylalaninamide]
- EC50 [1, 3]: 48 nM
- IC50 [2]: 3.7 nM

Compound: N[C@H](C(=O)Nc1cncc(F)c1CC[C@@H]1CN[C@H](COC(=O)NCC(F)(F)F)CO1)[C@H](c1ccc(F)cc1)c1ccc(C(F)(F)F)cc1 [Example 264, (βS)-β-(4-fluorophenyl)-N-(5-fluoro-4-{2-[(2R,5S)-5-({[(2,2,2-trifluoroethyl)carbamoyl]oxy}methyl)morpholin-2-yl]ethyl}pyridin-3-yl)-4-(trifluoromethyl)-L-phenylalaninamide]
- EC50 [1, 3]: 77 nM
- IC50 [2]: 3.6 nM

Compound: N[C@H](C(=O)Nc1cncc(F)c1CC[C@@H]1CN[C@H](COC(=O)NCC(F)(F)F)CO1)[C@@H](c1ccc(F)cc1)c1ccc(F)c(F)c1 [Example 265, (βS)-3,4-difluoro-β-(4-fluorophenyl)-N-(5-fluoro-4-{2-[(2R,5S)-5-({[(2,2,2-trifluoroethyl)carbamoyl]oxy}methyl)morpholin-2-yl]ethyl}pyridin-3-yl)-L-phenylalaninamide]
- EC50 [1, 3]: 36 nM
- IC50 [2]: 3.1 nM

Compound: N[C@H](C(=O)Nc1cncc(F)c1CC[C@@H]1CN[C@H](COC(=O)NCC(F)(F)F)CO1)[C@H](c1ccc(F)cc1)c1cccc(Cl)c1 [Example 266, (βR)-3-chloro-β-(4-fluorophenyl)-N-(5-fluoro-4-{2-[(2R,5S)-5-({[(2,2,2-trifluoroethyl)carbamoyl]oxy}methyl)morpholin-2-yl]ethyl}pyridin-3-yl)-L-phenylalaninamide]
- EC50 [1, 3]: 50 nM
- IC50 [2]: 3.1 nM

Compound: N[C@H](C(=O)Nc1cncc(F)c1CC[C@@H]1CN[C@H](COC(=O)NCC(F)(F)F)CO1)[C@H](c1ccc(F)cc1)c1ccc(Cl)cc1 [Example 267, (βR)-β-(4-chlorophenyl)-4-fluoro-N-(5-fluoro-4-{2-[(2R,5S)-5-({[(2,2,2-trifluoroethyl)carbamoyl]oxy}methyl)morpholin-2-yl]ethyl}pyridin-3-yl)-L-phenylalaninamide]
- EC50 [1, 3]: 51 nM
- IC50 [2]: 3.1 nM

Compound: N[C@H](C(=O)Nc1cncc(F)c1CC[C@@H]1CN[C@H](COC(=O)NCC(F)(F)F)CO1)[C@@H](c1ccc(F)cc1)c1cc(F)ccc1F [Example 268, (βS)-2,5-difluoro-β-(4-fluorophenyl)-N-(5-fluoro-4-{2-[(2R,5S)-5-({[(2,2,2-trifluoroethyl)carbamoyl]oxy}methyl)morpholin-2-yl]ethyl}pyridin-3-yl)-L-phenylalaninamide]
- EC50 [1, 3]: 44 nM
- IC50 [2]: 2.8 nM

Compound: N[C@H](C(=O)Nc1cccc(F)c1CC[C@@H]1CN[C@H](COC(=O)NCC(F)(F)F)CO1)[C@H](c1ccccc1)c1ccc(F)c(F)c1 [Example 269, (βR)-β-(3,4-difluorophenyl)-N-(3-fluoro-2-{2-[(2R,5S)-5-({[(2,2,2-trifluoroethyl)carbamoyl]oxy}methyl)morpholin-2-yl]ethyl}phenyl)-L-phenylalaninamide]
- EC50 [1, 3]: 25 nM
- IC50 [2]: 2.7 nM
